Assay results from patent publication US20210361639A1, “SOLID COMPOSITIONS OF ACTIVES, PROCESSES FOR PREPARING SAME AND USES OF SUCH SOLID COMPOSITIONS” (The University of Liverpool, priority 2018, published 2021).

How the values were obtained:
[1] = Single oral dose pharmacokinetics of atazanavir; design: species or system Wistar rats; settings: male, Wistar, rat, in vivo, 10 mg/kg
Method: All animal work was conducted in accordance with the Animals (Scientific Procedures) Act 1986 (ASPA) implemented by the UK Home Office. The rodents were housed with environmental enrichment and a 12 h light/dark cycle at 21° C.±2° C. Free access to food and water was provided at all times during acclimatisation. Following 7-days acclimatisation, adult male Wistar rats (280-330 g) were fasted overnight and dosed with 10 mg Kg^−1 atazanavir at 10 μCi/mg, either as a conventional [^3H]-atazanavir preparation (<5% DMSO) or as a [^3H]-^ATVSDNF68/T20 nanodispersion using a 7-cm curved gavage needle. Subsequently, blood samples were collected (0.2 ml) at 1, 2, 2.5, 3, 6 and 12 h post-dosing from the tail vein. At 24 h, the rats were sacrificed using cardiac puncture under terminal anaesthesia (isoflurane/oxygen), followed by immediate exsanguination of blood from the heart. Subsequently, an overdose of sodium pentobarbitone was administered using the same in situ puncture needle. Blood samples were collected in heparinised Eppendorf tubes and centrifuged at 3,000 rpm for 5 min. The plasma layer was collected and stored at −20° C. prior to analysis.

[2] = Multiple oral dose (every 6 hours) pharmacokinetics of atazanavir; type: in vivo, Wistar rats; settings: multiple oral dose 10 mg/kg atazanavir every 6 hours, steady state, rat plasma
Method: All animal work was conducted in accordance with the Animals (Scientific Procedures) Act 1986 (ASPA) implemented by the UK Home Office. The rodents were housed with environmental enrichment and a 12 h light/dark cycle at 21° C.±2° C. Free access to food and water was provided at all times. Following 7-days acclimatisation, adult male Wistar rats (280-330 g) were dosed with 10 mg Kg^−1 atazanavir at 5 μCi/mg, either as a conventional [^3H]-atazanavir preparation (<5% DMSO) or as a [^3H]^ATVSDNF68/T20 nanodispersion using a 7-cm curved gavage needle. Subsequent doses were administered at 6 hour intervals. Subsequently, trough blood samples were collected (0.15 ml) every 12 h post-dosing from the lateral tail vein. Steady state PK blood samples were taken at 60, 61, 62, 62.5, 63, 64 and 66 h post first dose. At 66 h, the rats were sacrificed using cardiac puncture under terminal anaesthesia (isoflurane/oxygen), followed by immediate exsanguination of blood from the heart. Subsequently, an overdose of sodium pentobarbitone was administered using the same in situ puncture needle. Blood samples were collected in heparinised Eppendorf tubes and centrifuged at 3,000 rpm for 5 min. The plasma layer was collected and stored at −20° C. prior to analysis.

AUC(0-t) [1]: 60400 ng·h/mL
Cmax [1]: 4870 ng/mL
Cmin [1]: 1986 ng/mL
Tmax [1]: 2 h
AUC(0-t) ([2]; male, Wistar): 15500 ng·h/mL
Cmax ([2]; male, Wistar): 3090 ng/mL
Tmax ([2]; male, Wistar): 1 h
Cmin [2]: 1799 ng/mL
Compound: COC(=O)N[C@H](C(=O)N[C@@H](Cc1ccccc1)[C@@H](O)CN(Cc1ccc(-c2ccccn2)cc1)NC(=O)[C@@H](NC(=O)OC)C(C)(C)C)C(C)(C)C [Aqueous atazanavir, atazanavir]
